Experimental data taken from patent publication US10857121B2, “Use of malononitrile compounds for protecting animals from parasites” (MERIAL INC., priority 2014, dated 2020).

Assays:
Haematobia irritans [1] = test: In vivo efficacy against Haematobia irritans in cattle, topical pour-on; conditions: for % Efficacy vs. Haematobia irritans at 5 h: 5 h after infestation; for % Efficacy vs. Haematobia irritans at 24 h: 24 h after infestation
Protocol: A representative compound of the invention (II-35) was evaluated for efficacy against 20 Haematobia irritans in cattle when applied topically. Four treatment groups and one untreated control group containing four animals each were formed. Treatment Group 1 was an untreated control and Treatment Group 5 was a positive control group treated with a pour-on product containing 5% (w/v) cypermethrin (Cypermil Pour-on). The animals in Treatment Groups 2, 3 and 4 were treated with a pour-on composition containing compound (II-35) to deliver doses of 20 mg/kg, 10 mg/kg and 5 mg/kg body weight, respectively. The pour-on formulations comprised a mixture of 20% (w/v), 10% (w/v) and 5% (w/v) of the active dissolved in a carrier comprising 50% (v/v)N-methylpyrrolidone, 5% (v/v) dimethyl isosorbide and qs with Miglyol® 840. All animals were infested with approximately 200 Haematobia irritans flies on Days 1, 7, 14 and 21. As the source of flies was natural and the amount of flies decreased, the infestations On Days 28 and 35 animals were with approximately 100 horn flies due to a lack of flies. Additionally, Treatment Groups 3 and 5 were not infested on Day 35, due to the lack of flies. The flies were counted and recorded five hours following infestation and on the following day (at 24 h). The counts done on Day 2 were at 48 hours after treatment.
The % efficacy (% reduction) of the each treatment group compared with the untreated control group is shown in Tables 2 and 3 below and in FIG. 1.

Haematobia irritans [2] = test: as above; conditions: for % Efficacy vs. Haematobia irritans at 5 h: 5 h after infestation, Day 13

For C#Cc1ccc(CC(C#N)(C#N)c2ccc(F)cc2)cc1 [II-35], the “% Efficacy vs. Haematobia irritans at 5 h” value (Haematobia irritans [1]; pour-on 5 mg/kg (Group 4), Day 1) was 99.5%, the “% Efficacy vs. Haematobia irritans at 5 h” value (Haematobia irritans [1]; pour-on 5 mg/kg (Group 4), Day 7) was 98.3% and the “% Efficacy vs. Haematobia irritans at 5 h” value (Haematobia irritans [1]; pour-on 5 mg/kg (Group 4), Day 13) was 93.2%. The “% Efficacy vs. Haematobia irritans at 5 h” value (Haematobia irritans [1]; pour-on 5 mg/kg (Group 4), Day 21) was 80.0%, the “% Efficacy vs. Haematobia irritans at 5 h” value (Haematobia irritans [1]; pour-on 5 mg/kg (Group 4), Day 28) was 64.1% and the “% Efficacy vs. Haematobia irritans at 5 h” value (Haematobia irritans [1]; pour-on 5 mg/kg (Group 4), Day 35) was 51.5%. The “% Efficacy vs. Haematobia irritans at 24 h” value (Haematobia irritans [1]; pour-on 5 mg/kg (Group 4), Day 2) was 100.0%, the “% Efficacy vs. Haematobia irritans at 24 h” value (Haematobia irritans [1]; pour-on 5 mg/kg (Group 4), Day 8) was 99.7% and the “% Efficacy vs. Haematobia irritans at 24 h” value (Haematobia irritans [1]; pour-on 5 mg/kg (Group 4), Day 14) was 100.0%. For the same compound, the “% Efficacy vs. Haematobia irritans at 24 h” value (Haematobia irritans [1]; pour-on 5 mg/kg (Group 4), Day 22) was 93.5%, the “% Efficacy vs. Haematobia irritans at 24 h” value (Haematobia irritans [1]; pour-on 5 mg/kg (Group 4), Day 29) was 95.5% and the “% Efficacy vs. Haematobia irritans at 24 h” value (Haematobia irritans [1]; pour-on 5 mg/kg (Group 4), Day 36) was 88.1%. For the same compound, the “efficacy vs. Haematobia irritans” value (Haematobia irritans [1]; pour-on 5 mg/kg (Group 4), until Day 13, after 5 hours post infestation) was “above 93%”, the “efficacy vs. Haematobia irritans” value (Haematobia irritans [1]; pour-on 5 mg/kg (Group 4), until Day 29, after 24 hours post infestation) was “above 93%” and the “% Efficacy vs. Haematobia irritans at 5 h” value (Haematobia irritans [1]; pour-on 10 mg/kg (Group 3), Day 1) was 98.9%. The “% Efficacy vs. Haematobia irritans at 5 h” value (Haematobia irritans [1]; pour-on 10 mg/kg (Group 3), Day 7) was 98.2%, the “% Efficacy vs. Haematobia irritans at 5 h” value (Haematobia irritans [1]; pour-on 10 mg/kg (Group 3), Day 21) was 68.3% and the “% Efficacy vs. Haematobia irritans at 5 h” value (Haematobia irritans [1]; pour-on 10 mg/kg (Group 3), Day 28) was 65.6%. The “% Efficacy vs. Haematobia irritans at 24 h” value (Haematobia irritans [1]; pour-on 10 mg/kg (Group 3), Day 2) was 100.0%, the “% Efficacy vs. Haematobia irritans at 24 h” value (Haematobia irritans [1]; pour-on 10 mg/kg (Group 3), Day 8) was 100.0% and the “% Efficacy vs. Haematobia irritans at 24 h” value (Haematobia irritans [1]; pour-on 10 mg/kg (Group 3), Day 14) was 100.0%. The “% Efficacy vs. Haematobia irritans at 24 h” value (Haematobia irritans [1]; pour-on 10 mg/kg (Group 3), Day 22) was 93.1%, the “% Efficacy vs. Haematobia irritans at 24 h” value (Haematobia irritans [1]; pour-on 10 mg/kg (Group 3), Day 29) was 69.2% and the “efficacy vs. Haematobia irritans” value (Haematobia irritans [1]; pour-on 10 mg/kg (Group 3), until Day 22, after 24 hours post infestation) was “above 93%”. For the same compound, the “% Efficacy vs. Haematobia irritans at 5 h” value (Haematobia irritans [1]; pour-on 20 mg/kg (Group 2), Day 1) was 97.8%, the “% Efficacy vs. Haematobia irritans at 5 h” value (Haematobia irritans [1]; pour-on 20 mg/kg (Group 2), Day 7) was 99.2% and the “% Efficacy vs. Haematobia irritans at 5 h” value (Haematobia irritans [1]; pour-on 20 mg/kg (Group 2), Day 21) was 86.6%. The “% Efficacy vs. Haematobia irritans at 5 h” value (Haematobia irritans [1]; pour-on 20 mg/kg (Group 2), Day 28) was 85.0%, the “% Efficacy vs. Haematobia irritans at 5 h” value (Haematobia irritans [1]; pour-on 20 mg/kg (Group 2), Day 35) was 65.8% and the “% Efficacy vs. Haematobia irritans at 24 h” value (Haematobia irritans [1]; pour-on 20 mg/kg (Group 2), Day 2) was 100.0%. For the same compound, the “% Efficacy vs. Haematobia irritans at 24 h” value (Haematobia irritans [1]; pour-on 20 mg/kg (Group 2), Day 8) was 98.3%, the “% Efficacy vs. Haematobia irritans at 24 h” value (Haematobia irritans [1]; pour-on 20 mg/kg (Group 2), Day 14) was 100.0% and the “% Efficacy vs. Haematobia irritans at 24 h” value (Haematobia irritans [1]; pour-on 20 mg/kg (Group 2), Day 22) was 97.9%. For the same compound, the “% Efficacy vs. Haematobia irritans at 24 h” value (Haematobia irritans [1]; pour-on 20 mg/kg (Group 2), Day 29) was 96.9%, the “% Efficacy vs. Haematobia irritans at 24 h” value (Haematobia irritans [1]; pour-on 20 mg/kg (Group 2), Day 36) was 85.6% and the “efficacy vs. Haematobia irritans” value (Haematobia irritans [1]; pour-on 20 mg/kg (Group 2), until Day 13, after 5 hours post infestation) was “above 93%”. The “efficacy vs. Haematobia irritans” value (Haematobia irritans [1]; pour-on 20 mg/kg (Group 2), until Day 29, after 24 hours post infestation) was “above 93%”, the “% Efficacy vs. Haematobia irritans at 5 h” value (Haematobia irritans [2]; pour-on 10 mg/kg (Group 3)) was 93.8% and the “efficacy vs. Haematobia irritans” value (Haematobia irritans [2]; pour-on 10 mg/kg (Group 3), until Day 13, after 5 hours post infestation) was “above 93%”. The “% Efficacy vs. Haematobia irritans at 5 h” value (Haematobia irritans [2]; pour-on 20 mg/kg (Group 2)) was 97.7%.
